Experimental data from ChEMBL document CHEMBL1145321, “Evaluation of indenoisoquinoline topoisomerase I inhibitors using a hollow fiber assay” (2006).

Test system: Panel NCI-60 (60 carcinoma cell lines)
Experiment: Antiproliferative activity against human NCI60 cell line measured as mean graph midpoint
Type: functional

| SMILES | Activity [µM] |
| --- | --- |
| COc1cc2c3c(n(C)c(=O)c2cc1OC)-c1cc2c(cc1/C3=C/CCCI)OCO2 | 8.49 |
| Cl.NCCCn1c2c(c3ccccc3c1=O)C(=O)c1cc3c(cc1-2)OCO3 | 0.251 |
| O=C1c2cc3c(cc2-c2c1c1ccccc1c(=O)n2CCCNCCCO)OCO3 | 15.5 |
| COc1cc2c3c(n(Cc4ccccc4)c(=O)c2cc1OC)-c1cc2c(cc1C3=O)OCO2 | 41.6 |
| O=C1c2ccccc2-c2c1c1ccccc1c(=O)n2CCCCCO | 14.4 |
| Cn1c2c(c3ccccc3c1=O)C(=O)c1cc3c(cc1-2)OCO3 | 45 |
| COc1cc2c3c(n(CCN)c(=O)c2cc1OC)-c1cc2c(cc1C3=O)OCO2.Cl | 0.338 |
| Cl.NCCCCn1c2c(c3ccccc3c1=O)C(=O)c1ccccc1-2 | 0.156 |
| COc1cc2c(cc1[N+](=O)[O-])C(=O)N(CCCBr)[C@@H]1c3cc4c(cc3C(=O)[C@H]21)OCO4 | 0.016 |
| COc1cc2c(cc1OC)[C@H]1C(=O)c3cc4c(cc3[C@H]1N(CCCBr)C2=O)OCO4 | 0.69 |
| COc1cc2c(cc1OC)[C@H]1C(=O)c3cc4c(cc3[C@H]1N(Cc1ccccc1)C2=O)OCO4 | 1.18 |
| [N-]=[N+]=NCCCn1c2c(c3ccc([N+](=O)[O-])cc3c1=O)C(=O)c1cc3c(cc1-2)OCO3 | 0.098 |
| Cl.NCCCn1c2c(c3ccccc3c1=O)C(=O)c1ccccc1-2 | 0.315 |
| CCCCn1c2c(c3cc(OC)c(OC)cc3c1=O)C(=O)c1cc3c(cc1-2)OCO3 | 41.6 |
| COc1cc2c3c(n(CCCNCCN)c(=O)c2cc1OC)-c1cc2c(cc1C3=O)OCO2.Cl.Cl | 0.347 |
| COc1cc2c3c(n(CCCCO)c(=O)c2cc1OC)-c1cc2c(cc1C3=O)OCO2 | 3.2 |
| Cl.c1c2c(cc3c1OCO3)-c1ncc3cc4c(cc3c1C2)OCO4 | 0.271 |
| COc1cc2c3c(n(CCCN)c(=O)c2cc1OC)-c1cc2c(cc1C3=O)OCO2.Cl | 0.16 |
| COc1cc2c3c(n(CCCNCCNCCN)c(=O)c2cc1OC)-c1cc2c(cc1C3=O)OCO2.Cl | 2.4 |
| Cl.O=C1c2ccccc2-c2c1c1ccccc1c(=O)n2CCCNCCCn1ccnc1 | 1.01 |
| Cl.NCCCn1c2c(c3ccc([N+](=O)[O-])cc3c1=O)C(=O)c1ccccc1-2 | 0.146 |
| COc1cc2c3c(n(C)c(=O)c2cc1OC)-c1cc2c(cc1C3=O)OCO2 | 20 |
| CC[C@@]1(O)C(=O)OCc2c1cc1n(c2=O)Cc2cc3ccccc3nc2-1 [CAMPTOTHECIN] | 0.0405 |
| CC(=O)O[C@H]1C(=O)[C@@]2(C)[C@H]([C@H](OC(=O)c3ccccc3)[C@]3(O)C[C@H](OC(=O)[C@H](O)[C@@H](NC(=O)c4ccccc4)c4ccccc4)C(C)=C1C3(C)C)[C@]1(OC(C)=O)CO[C@@H]1C[C@@H]2O [PACLITAXEL] | 0.0253 |
| CC[C@]1(O)C[C@@H]2CN(CCc3c([nH]c4ccccc34)[C@@](C(=O)OC)(c3cc4c(cc3OC)N(C)[C@H]3[C@@](O)(C(=O)OC)[C@H](OC(C)=O)[C@]5(CC)C=CCN6CC[C@]43[C@@H]65)C2)C1.O=S(=O)(O)O [VINBLASTINE SULFATE] | 0.025 |
